Measured values reported in patent publication US8653096B2, “Chemokine receptor antagonists and methods of use thereof” (Millennium Pharmaceuticals, Inc., priority 2001, dated 2014).
Where two headings read alike, the source gives them in different places.

Target: T1, RANTES/MIP-1α chemokine receptor (CCR1) in THP-1 cell membranes (Homo sapiens, UniProt P32246)
T1 construct: Membranes were prepared from THP-1 cells (ATCC #TIB202); host or cells: THP-1 cells (membrane preparation)
T1 sequence (P32246 1-355): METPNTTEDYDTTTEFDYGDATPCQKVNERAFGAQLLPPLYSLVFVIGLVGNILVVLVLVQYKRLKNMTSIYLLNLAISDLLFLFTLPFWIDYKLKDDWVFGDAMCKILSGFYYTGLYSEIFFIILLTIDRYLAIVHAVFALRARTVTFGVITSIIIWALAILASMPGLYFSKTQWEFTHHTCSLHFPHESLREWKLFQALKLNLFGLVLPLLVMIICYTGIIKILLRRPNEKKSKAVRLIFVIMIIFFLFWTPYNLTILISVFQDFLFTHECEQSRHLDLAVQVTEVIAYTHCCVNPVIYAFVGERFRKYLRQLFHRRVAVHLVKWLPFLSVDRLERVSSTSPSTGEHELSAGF
Experiment: Receptor binding assay: 125I-RANTES or 125I-MIP-1α binding to THP-1 cell membranes

[1] = inhibitor concentration required for 50% inhibition of specific binding, 125I-RANTES or 125I-MIP-1α as ligand, THP-1 cell membranes, read-out: IC50

Q: How did the IC50 [1] turn out when `CC(C)(Oc1ccc2c(c1)C(=CCCN1CCC(O)(c3ccc(Cl)cc3)CC1)c1cccnc1CO2)C(N)=O` [Example 211, 1-[3-(7-(1-Carbamoyl-1-methyl)ethyloxy-5,11-dihydro [1]benzoxepino[2,3-b]pyridin-5-ylidene)propyl]-4-(4-chlorophenyl)piperidin-4-ol] was run?
A: < 1000 nM

Q: Which IC50 [1] does the source give for `CNC(=O)C(C)(C)Oc1ccc2c(c1)C(=CCCN1CCC(O)(c3ccc(Cl)cc3)CC1)c1cccnc1CO2` [Example 212, 4-(4-Chlorophenyl)-1-[3-(5,11-dihydro-7-(1-methylaminocarbonyl-1-methyl)ethyloxy[1]benzoxepino[2,3-b]pyridin-5-ylidene)propyl]piperidin-4-ol] here?
A: < 1000 nM

Q: `CN(C)C(=O)C=Cc1ccc2c(c1)C(=CCCN1CCC(O)(c3ccc(Cl)cc3)CC1)c1cccnc1CO2` [Example 215, 4-(4-Chlorophenyl)-1-[3-(7-(2-dimethylaminocarboxy)ethenyl-5,11-dihydro[1]benzoxepino[2,3-b]pyridin-5-ylidene)propyl]piperidin-4-ol] was tested. Which IC50 [1] did it give?
A: < 1000 nM

Q: For `CC(C)(O)c1ccc2c(c1)C(=CCCN1CCC(O)(c3ccc(Cl)cc3)CC1)c1cccnc1CO2` [Example 242, 4-(4-Chlorophenyl)-1-[3-(5,11-dihydro-7-(1-hydroxy-1-methyl)ethyl[1]benzoxepino[2,3-b]pyridin-5-ylidene)propyl]piperidin-4-ol], which IC50 [1] is on record?
A: < 1000 nM

Q: How did the IC50 [1] turn out when `COc1ccc2c(c1)C(=CCCN1CCOC(c3ccc(Cl)cc3)OCC1)c1cccnc1CO2` [Example 249, 5-(4-Chlorophenyl)-1-[3-(5,11-dihydro-7-methoxy[1]benzoxepino[2,3-b]pyridin-5-ylidene)propyl]-4,6-dioxazacane] was run?
A: < 1000 nM

Q: How did the IC50 [1] turn out when `CC(C)(Oc1ccc2c(c1)C(=CCC[N+]1(C)CCC(O)(c3ccc(Cl)cc3)CC1)c1cccnc1CO2)C(N)=O` (stereo not drawn) [Example 262, 1-[3-(7-(1-Carbamoyl-1-methyl)ethyloxy-5,11-dihydro[1]benzoxepino[2,3-b]pyridin-5-ylidene)propyl]-4-(4-chlorophenyl)-4-hydroxy-1-methylpiperidinium iodide] was run?
A: < 1000 nM

Q: `COC(=O)c1ccc2c(c1)C(=CCCN1CCC(O)(c3ccc(Cl)cc3)CC1)c1cccnc1CO2` [Example 273] was tested. Which IC50 [1] did it give?
A: < 1000 nM

Q: For `OC1(c2ccc(Cl)cc2)CCN(CCC=C2c3cc(CN4CCOCC4)ccc3OCc3ncccc32)CC1` [Example 278, 4-(4-Chlorophenyl)-1-[3-(5,11-dihydro-7-(4-morpholino)methyl[1]benzoxepino[2,3-b]pyridin-5-ylidene)propyl]piperidin-4-ol], which IC50 [1] is on record?
A: < 1000 nM

Q: Which IC50 [1] does the source give for `OCCCc1ccc2c(c1)C(=CCCN1CCC(O)(c3ccc(Cl)cc3)CC1)c1cccnc1CO2` [Example 289, 4-(4-Chlorophenyl)-1-[3-(7-(1-(3-hydroxy)propyl)-5,11-dihydro[1]benzoxepino[2,3-b]pyridin-5-ylidene)propyl]piperidin-4-ol] here?
A: < 1000 nM

Q: For `CCOC(=O)[C@H]1CCCN(NC(=O)c2ccc3c(c2)C(=CCCN2CCC(O)(c4ccc(Cl)cc4)CC2)c2cccnc2CO3)C1` [Example 422, 4-(4-Chlorophenyl)-1-[3-(5,11-dihydro-7-(S-3-ethoxycarbonyl-piperidine-1-yl)-carbamoyl-[1]benzoxepino[2,3-b]pyridin-5-ylidene)propyl]piperidine-4-ol], which IC50 [1] is on record?
A: < 1000 nM

Q: `O=C(OCCN1CCOCC1)c1ccc2c(c1)C(=CCCN1CCC(O)(c3ccc(Cl)cc3)CC1)c1cccnc1CO2` [Example 430, 4-(4-Chlorophenyl)-1-[3-(5,11-dihydro-7-(2-morpholinoethyl-1-yl)-oxycarbonyl-[1]benzoxepino[2,3-b]pyridin-5-ylidene)propyl]piperidine-4-ol] was tested. Which IC50 [1] did it give?
A: < 1000 nM

Q: Which IC50 [1] does the source give for `CCN(CC)CCOC(=O)c1ccc2c(c1)C(=CCCN1CCC(O)(c3ccc(Cl)cc3)CC1)c1cccnc1CO2` [Example 431, 4-(4-Chlorophenyl)-1-[3-(5,11-dihydro-7-(2,2-diethylaminoethyl-1-yl)-oxycarbonyl-[1]benzoxepino[2,3-b]pyridin-5-ylidene)propyl]piperidine-4-ol] here?
A: < 1000 nM

Q: With `CC(C)(C)C(=O)OCOC(=O)c1ccc2c(c1)C(=CCCN1CCC(O)(c3ccc(Cl)cc3)CC1)c1cccnc1CO2` [Example 432, 4-(4-Chlorophenyl)-1-[3-(5,11-dihydro-7-(1-2,2-dimethylpropionyl-oxymethyl)-oxycarbonyl-[1]benzoxepino[2,3-b]pyridin-5-ylidene)propyl]piperidine-4-ol] as the compound, how does the IC50 [1] read?
A: < 1000 nM

Q: For `CC(C)(O)c1ccc2c(c1)C(=CCCN1CCC(C#N)(c3ccc(Cl)cc3)CC1)c1cccnc1CO2` [Example 456, 4-(4-Chloro-phenyl)-1-{3-[7-(1-hydroxy-1-methyl-ethyl)-11H-10-oxa-1-aza-dibenzo-[a,d]cyclohepten-5-ylidene]-propyl}-piperidine-4-carbonitrile], which IC50 [1] is on record?
A: < 1000 nM

Q: `CC(=O)C1(c2ccc(Cl)cc2)CCN(CCC=C2c3cc(C(C)(C)O)ccc3OCc3ncccc32)CC1` [Example 457, 1-(4-(4-Chloro-phenyl)-1-{3-[7-(1-hydroxy-1-methyl-ethyl)-11H-10-oxa-1-aza-dibenzo[a,d]cyclohepten-5-ylidene]-propyl}-piperidin-4-yl)-ethanone] was tested. Which IC50 [1] did it give?
A: < 1000 nM

Q: For `COC(=O)C1(c2ccc(Cl)cc2)CCN(CCC=C2c3cc(C(C)(C)O)ccc3OCc3ncccc32)CC1` [Example 458, 4-(4-Chloro-phenyl)-1-{3-[7-(1-hydroxy-1-methyl-ethyl)-11H-10-oxa-1-aza-dibenzo[a,d]cyclohepten-5-ylidene]-propyl}-piperidine-4-carboxylic acid methyl ester], which IC50 [1] is on record?
A: < 10000 nM

Q: With `CC(C)(O)c1ccc2c(c1)C(=CCCN1CCC(C(=O)O)(c3ccc(Cl)cc3)CC1)c1cccnc1CO2` [Example 459, 4-(4-Chloro-phenyl)-1-{3-[7-(1-hydroxy-1-methyl-ethyl)-11H-10-oxa-1-aza-dibenzo[a,d]cyclohepten-5-ylidene]-propyl}-piperidine-4-carboxylic acid] as the compound, how does the IC50 [1] read?
A: < 10000 nM

Q: With `CC(C)(O)c1ccc2c(c1)C(=CCCN1CCC(C(N)=O)(c3ccc(Cl)cc3)CC1)c1cccnc1CO2` [Example 460, 4-(4-Chloro-phenyl)-1-{3-[7-(1-hydroxy-1-methyl-ethyl)-11H-10-oxa-1-aza-dibenzo[a,d]cyclohepten-5-ylidene]-propyl}-piperidine-4-carboxylic acid amide] as the compound, how does the IC50 [1] read?
A: < 1000 nM

Q: Which IC50 [1] does the source give for `CC(C)(O)c1ccc2c(c1)C(=CCCN1CCC(CO)(c3ccc(Cl)cc3)CC1)c1cccnc1CO2` [Example 461, 2-(5-{3-[4-(4-Chloro-phenyl)-4-hydroxymethyl-piperidin-1-yl]-propylidene}-5,11-dihydro-10-oxa-1-aza-dibenzo[a,d]cyclohepten-7-yl)-propan-2-ol] here?
A: < 10000 nM

Q: With `CC(O)C1(c2ccc(Cl)cc2)CCN(CCC=C2c3cc(C(C)(C)O)ccc3OCc3ncccc32)CC1` (stereo not drawn) [Example 462, 2-(5-{3-[4-(4-chloro-phenyl)-4-(1-hydroxy-ethyl)-piperidin-1-yl]-propylidene}-5,11-dihydro-10-oxa-1-aza-dibenzo [a,d]cyclohepten-7-yl)-propan-2-ol] as the compound, how does the IC50 [1] read?
A: < 10000 nM

Q: With `CC(C)(O)c1ccc2c(c1)C(=CCCN1CCC(c3ccc(Cl)cc3)(C(C)(C)O)CC1)c1cccnc1CO2` [Example 463, 2-(5-{3-[4-(4-Chloro-phenyl)-4-(1-hydroxy-1-methyl-ethyl)-piperidin-1-yl]-propylidene}-5,11-dihydro-10-oxa-1-aza-dibenzo[a,d]cyclohepten-7-yl)-propan-2-ol] as the compound, how does the IC50 [1] read?
A: < 10000 nM

Q: For `CC(C)(O)c1ccc2c(c1)C(=CCCN1CCC(C#N)(Nc3ccc(Cl)cc3)CC1)c1cccnc1CO2` [Example 464, 4-(4-Chloro-phenylamino)-1-{3-[7-(1-hydroxy-1-methyl-ethyl)-11H-10-oxa-1-aza-dibenzo[a,d]cyclohepten-5-ylidene]-propyl}-piperidine-4-carbonitrile], which IC50 is on record?
A: < 1000 nM

Q: `COC(=O)C1(Nc2ccc(Cl)cc2)CCN(CCC=C2c3cc(C(C)(C)O)ccc3OCc3ncccc32)CC1` [Example 465, 4-(4-Chloro-phenylamino)-1-{3-[7-(1-hydroxy-1-methyl-ethyl)-11H-10-oxa-1-aza-dibenzo[a,d]cyclohepten-5-ylidene]-propyl}-piperidine-4-carboxylic acid methyl ester] was tested. Which IC50 did it give?
A: < 1000 nM

Q: With `CC(C)(O)c1ccc2c(c1)C(=CCCN1CCC(Nc3ccc(Cl)cc3)(C(N)=O)CC1)c1cccnc1CO2` [Example 466, 4-(4-Chloro-phenylamino)-1-{3-[7-(1-hydroxy-1-methyl-ethyl)-11H-10-oxa-1-aza-dibenzo[a,d]cyclohepten-5-ylidene]-propyl}-piperidine-4-carboxylic acid amide] as the compound, how does the IC50 read?
A: < 50000 nM

Q: With `CC(C)(O)c1ccc2c(c1)C(=CCCN1CCC(F)(c3ccc(Cl)cc3)CC1)c1cccnc1CO2` [Example 467, 2-(5-{3-[4-(4-Chloro-phenyl)-4-fluoro-piperidin-1-yl]-propylidene}-5,11-dihydro-10-oxa-1-aza-dibenzo[a,d]cyclohepten-7-yl)-propan-2-ol] as the compound, how does the IC50 [1] read?
A: < 1000 nM

Q: For `CC(C)(O)c1ccc2c(c1)C(=CCCN1CCC(F)(c3ccc(Cl)cc3)C(O)C1)c1cccnc1CO2` (stereo not drawn) [Example 468, 4-(4-Chloro-phenyl)-4-fluoro-1-{3-[7-(1-hydroxy-1-methyl-ethyl)-11H-10-oxa-1-aza-dibenzo[a,d]cyclohepten-5-ylidene]-propyl}-piperidin-3-ol], which IC50 [1] is on record?
A: < 1000 nM

Q: `CC1CN(CCC=C2c3cc(C(C)(C)O)ccc3OCc3ncccc32)CCC1(F)c1ccc(Cl)cc1` (stereo not drawn) [Example 469, 2-(5-{3-[4-(4-Chloro-phenyl)-4-fluoro-3-methyl-piperidin-1-yl]-propylidene}-5,11-dihydro-10-oxa-1-aza-dibenzo[a,d]cyclohepten-7-yl)-propan-2-ol] was tested. Which IC50 [1] did it give?
A: < 1000 nM
